According to PMC12693701, “Glucosinolate-Derived Metabolites from Barbarea vulgaris (Brassicaceae): Evaluation of Antimicrobial, Antioxidant, and Anti-Inflammatory Potentials” (Molecules, 2025):
Converted amounts (≈) assume the structure as drawn. Read-outs that look alike come from different tables or passages of the source.

What was measured:
[1] = biological target: T1, Type I-B soybean lipoxygenase (Glycine max, UniProt P08170); assay: LOX inhibition assay; assay type: biochemical; conditions: for inhibition at 100 µM: read-out: Percentage of LOX Inhibition
T1 sequence (P08170 1-839): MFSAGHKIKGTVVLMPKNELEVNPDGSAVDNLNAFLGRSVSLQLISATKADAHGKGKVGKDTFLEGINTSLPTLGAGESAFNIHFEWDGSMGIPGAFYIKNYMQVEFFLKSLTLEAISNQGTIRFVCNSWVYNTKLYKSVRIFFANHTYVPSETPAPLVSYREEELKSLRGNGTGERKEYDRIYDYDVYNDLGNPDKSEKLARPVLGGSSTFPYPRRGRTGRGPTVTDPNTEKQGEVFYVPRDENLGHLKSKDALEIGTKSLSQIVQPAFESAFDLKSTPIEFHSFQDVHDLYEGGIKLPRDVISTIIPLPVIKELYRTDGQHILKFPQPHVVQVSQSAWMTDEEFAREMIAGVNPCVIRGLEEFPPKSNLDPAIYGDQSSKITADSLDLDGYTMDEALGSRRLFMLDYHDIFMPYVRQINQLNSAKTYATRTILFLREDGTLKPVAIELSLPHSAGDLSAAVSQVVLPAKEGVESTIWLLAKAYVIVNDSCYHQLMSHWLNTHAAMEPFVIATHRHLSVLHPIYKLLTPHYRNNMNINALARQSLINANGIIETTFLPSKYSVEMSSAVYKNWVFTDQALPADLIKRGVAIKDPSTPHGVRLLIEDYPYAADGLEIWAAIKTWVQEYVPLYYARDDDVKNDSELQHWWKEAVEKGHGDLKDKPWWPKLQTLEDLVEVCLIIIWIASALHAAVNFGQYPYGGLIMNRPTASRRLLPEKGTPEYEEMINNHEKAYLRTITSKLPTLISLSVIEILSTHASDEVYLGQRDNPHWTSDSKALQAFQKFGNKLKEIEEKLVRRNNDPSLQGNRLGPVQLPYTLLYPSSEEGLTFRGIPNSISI
Protocol: Type I-B soybean lipoxygenase is a commonly used enzyme for studying the anti-inflammatory properties of various compounds [19]. The lipoxygenase (LOX) inhibition assay measures the enzyme’s ability to convert sodium linoleate to 13-hydroperoxylinoleic acid. The inhibition of the enzyme by the investigated compounds was determined by measuring the absorbance at 234 nm for each prepared sample. Specifically, the test compound, Tris buffer, an enzyme solution (5 × 10^3 units/mL in saline), and sodium linoleate (3 mM in Tris buffer, pH 9), were added to a UV cuvette, and the absorbance was recorded. […] All measurements were performed in triplicate.

[2] = tested on: F. solani ATCC 11712; assay: Microdilution MIC/MMC; assay type: cell-based, Fusarium solani
Protocol: (§1) The antimicrobial activity was evaluated against 15 microorganisms. This included 11 bacterial strains: four standard strains (Staphylococcus aureus ATCC 25923, Bacillus subtilis ATCC 6633, Bacillus pumilus NCTC 8241, and Escherichia coli ATCC 25922) and six clinical or environmental isolates (Staphylococcus aureus, Escherichia coli, Bacillus cereus, Proteus mirabilis, Salmonella enterica, and Klebsiella pneumoniae). One probiotic strain, Bifidobacterium animalis subsp. lactis was tested. In addition, four fungal strains, Candida albicans ATCC 10231, Trichoderma viride ATCC 13233, Aspergillus flavus ATCC 9170, and Fusarium solani ATCC 11712 were tested. The bacterial strains were kept in glycerol stock at −80 °C and the fungal strains in paraffin oil stock at 4 °C.
(§2) Bacterial and yeast suspensions were prepared using the direct colony method, as previously described by Andrews. The turbidity of the initial suspensions was adjusted to match the 0.5 McFarland standard using a densitometer (Biosan, Riga, Latvia), corresponding to approximately 10^8 colony-forming units (CFU)/mL for bacterial cells and 10^6 CFU/mL for yeast cells. Subsequently, 1:100 dilutions of the initial suspensions were prepared in sterile 0.85% saline. Fungal spore suspensions were obtained by gently harvesting spores from agar slopes containing mature mycelial growth. The collected spore suspensions were then diluted 1:1000 in sterile 0.85% saline prior to use.
(§3) Antimicrobial activity was evaluated by determining the minimum inhibitory concentration (MIC) and minimum microbicidal concentration (MMC) using the microdilution plate method with resazurin as an indicator [28]. In the 96-well plates, 100 μL of Mueller–Hinton broth (Torlak, Belgrade, Serbia) for bacterial testing and Sabouraud broth (Torlak, Belgrade, Serbia) for fungal testing were dispensed into each well. The compounds under investigation were initially dissolved in a 10% dimethyl sulfoxide (DMSO) solution, followed by dilution in sterile distilled water, resulting in a working compound solution containing 1% DMSO. A 100 μL aliquot of the stock solution of the tested compound was added to the first row, and twofold serial dilutions were then carried out using a multichannel pipette. The resulting concentration range was from 5 to 0.039 mg/mL. The inoculated microtiter plates were incubated at 37 °C for 24 h for bacteria, at 28 °C for 48 h for yeasts, and at 28 °C for 72 h for molds.
(§4) Each test also included growth control and sterility control. All tests were conducted in duplicate. MIC was defined as the lowest concentration of tested compounds that prevented resazurin color change from blue to pink. For molds, MIC values of the tested compound were determined as the lowest concentration that inhibited visible mycelia growth. MMC was determined by inoculation of the nutrient agar medium by plating […] of samples from wells, where no indicator color change was recorded. At the end of the incubation period, the lowest concentration with no growth (no colony) was defined as MMC.
(§5) Doxycycline, ampicillin and amphotericin B (- Sigma-Aldrich, St. Louis, MO, USA) and ketoconazole (Hemofarm A.D., Vršac, Serbia) were dissolved in a nutrient liquid medium. Doxycycline is a broad-spectrum antibiotic effective against both aerobic and anaerobic Gram-positive and Gram-negative bacteria. Ampicillin, a beta-lactam antibiotic, primarily targets Gram-positive bacteria but also some Gram-negative strains. Amphotericin B is an antifungal drug often used for serious systemic fungal infections and is one of the effective treatments for fungal infections caused by Aspergillus sp. Ketoconazole is an antifungal agent used to inhibit the growth of Candida species.

[3] = tested on: C. albicans ATCC 10231; assay: Microdilution MIC/MMC with resazurin; assay type: cell-based, Candida albicans; conditions: for MIC: Candida albicans, ATCC10231
Protocol: as §1, §2, §3, §4, §5

[4] = ABTS radical scavenging assay; conditions: mean ± SD
Protocol: The ABTS radical cation solution was prepared following the previously described protocol. Different concentrations of the analyzed samples were prepared in DMSO. The test samples were prepared following the specified procedure: 20 µL of sample was combined with 980 µL of methanol, followed by the addition of 1000 µL of ABTS solution. Absorbance was measured at 734 nm. All measurements were performed in triplicate.

[5] = tested on: B. animalis subsp. lactis; assay: Microdilution MIC/MMC with resazurin; assay type: cell-based, Bifidobacterium animalis subsp. lactis
Protocol: as §1, §2, §3, §4, §5

[6] = tested on: K. pneumoniae; assay: Microdilution MIC/MMC with resazurin; assay type: cell-based, Klebsiella pneumoniae; conditions: for MIC: Klebsiella pneumoniae
Protocol: as §1, §2, §3, §4, §5

[7] = F. solani ATCC 11712, compounds 1–8
[8] = Fusarium solani, ATCC11712, F. solani ATCC 11712, compounds 1–8, read-out: MIC
[9] = C. albicans ATCC 10231, compounds 1–8
[10] = C. albicans ATCC 10231, compounds 1–8, read-out: MIC
[11] = B. animalis subsp. lactis, compounds 1–8
[12] = Bifidobacterium animalis, B. animalis subsp. lactis, compounds 1–8, read-out: MIC
[13] = K. pneumoniae, compounds 1–8, read-out: MIC

Structure (SMILES)	inhibition at 100 µM ([1]; 100 µM, mean ± SD)	MMC [2, 7]	MIC [2, 8]	MMC [3, 9]	MIC [3, 10]	ABTS Scavenging Ability ([4]; 25 µM)	ABTS Scavenging Ability ([4]; 50 µM)	ABTS Scavenging Ability ([4]; 100 µM)	MMC [5, 11]	MIC [5, 12]	MMC ([6]; K. pneumoniae, compounds 1–8)	MIC [6, 13]	inhibition at 100 µM [1]	MIC [2, 7]	MIC ([2]; Fusarium solani, ATCC11712)	MIC [3]	MIC [5, 11]	MIC ([5]; Bifidobacterium animalis)	MIC [6]	IC50 ([1]; mean ± SD)
O=C(O)C1CSC(=S)N1 (stereo not drawn) [Compound 3, 2-Thioxothiazolidine-4-carboxylic Acid]	23.8 ± 0.8%	0.625 mg/mL	625 µg/mL (≈ 3.83 mM)	1.25 mg/mL	312 µg/mL (≈ 1.91 mM)	1.2 ± 0.3%	1.9 ± 1.2%	2.6 ± 0.7%	2.5 mg/mL	625 µg/mL (≈ 3.83 mM)	2.5 mg/mL	2500 µg/mL (≈ 15.3 mM)								
O=C1NCC(c2ccccc2)S1 (stereo not drawn) [Compound 6, 5-phenyl-1,3-thiazolidin-2-one]	34.6 ± 0.4%	>5 mg/mL	> 5000 µg/mL	>5 mg/mL	> 5000 µg/mL	2.6 ± 0.7%	3.9 ± 1.2%	5.1 ± 0.9%	>5 mg/mL	> 5000 µg/mL	>5 mg/mL	> 5000 µg/mL								
Oc1ccc(CCN=C=S)cc1 [Compound 8, 2-(4-hydroxyphenyl)ethyl isothiocyanate]		<0.039 mg/mL		2.5 mg/mL		2.9 ± 1.3%	6.8 ± 1.1%	11.9 ± 0.8%	0.625 mg/mL		0.625 mg/mL		21.2 ± 0.3%	<39 µg/mL	< 39 µg/mL	2500 µg/mL (≈ 13.9 mM)	<39 µg/mL	< 39 µg/mL	312 µg/mL (≈ 1.74 mM)	
CSC(=S)NCCc1ccc(O)cc1 [Compound 2, methyl-4-hydroxyphenylethyl dithiocarbamate]	55.5 ± 0.1%	0.234 mg/mL	156 µg/mL (≈ 0.686 mM)	>5 mg/mL	2500 µg/mL (≈ 11 mM)	7.6 ± 1.0%	13.4± 0.9%	13.4 ± 0.8%	0.625 mg/mL	78 µg/mL (≈ 0.343 mM)	0.625 mg/mL	625 µg/mL (≈ 2.75 mM)								97.4 ± 1.3 µM
